Earlier results, collected in patent US20100129295A1, “Compositions for preventing and/or treating gingivitis” (priority 2008, published 2010).

Key:
[1] = system: Kupffer cells
[2] = target: TNF-α (Homo sapiens, UniProt P01375)
[3] = females taking supplements; 27 females with gingivitis compared with women without
[4] = system: TNF-α induced cellular responses

Sequence of TNF-α (P01375 whole entry, species assumed): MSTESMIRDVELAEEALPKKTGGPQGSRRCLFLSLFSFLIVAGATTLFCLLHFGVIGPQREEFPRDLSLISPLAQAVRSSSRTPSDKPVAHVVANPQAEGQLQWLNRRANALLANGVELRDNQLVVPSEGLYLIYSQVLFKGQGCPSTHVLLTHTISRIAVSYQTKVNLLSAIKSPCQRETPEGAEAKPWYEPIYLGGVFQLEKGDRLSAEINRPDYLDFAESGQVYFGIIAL

C/C(O)=C(\C#N)C(=O)Nc1ccc(C(F)(F)F)cc1 [A 771726, teriflunomide]
TNF-α and IL-1 from Kupffer cells [1]: inhibits

Cc1cc(C(=O)Nc2ccc(Cl)cc2)no1 [UTL-5d]
inhibition of TNF-α [2]: inhibition

[Ca+2] [calcium]
risk of gingivitis [3]: reduced risk

Cc1oncc1C(=O)Nc1ccc(C(F)(F)F)cc1 [leflunomide]
TNF-α induced cellular responses [4]: suppresses

Cc1cc2nc3c(=O)[nH]c(=O)nc-3n(C[C@H](O)[C@H](O)[C@H](O)CO)c2cc1C [vitamin B2]
risk of gingivitis [3]: reduced risk
